{
  "source": "ChEMBL document CHEMBL3877337",
  "about": "“Crystal Structures of ERAP2 Complexed with Inhibitors Reveal Pharmacophore Requirements for Optimizing Inhibitor Potency” (ACS Med Chem Lett, 2017)",
  "molecular_target": "Endoplasmic reticulum aminopeptidase 2 (Homo sapiens, UniProt Q6P179)",
  "sequence (Q6P179 whole entry)": "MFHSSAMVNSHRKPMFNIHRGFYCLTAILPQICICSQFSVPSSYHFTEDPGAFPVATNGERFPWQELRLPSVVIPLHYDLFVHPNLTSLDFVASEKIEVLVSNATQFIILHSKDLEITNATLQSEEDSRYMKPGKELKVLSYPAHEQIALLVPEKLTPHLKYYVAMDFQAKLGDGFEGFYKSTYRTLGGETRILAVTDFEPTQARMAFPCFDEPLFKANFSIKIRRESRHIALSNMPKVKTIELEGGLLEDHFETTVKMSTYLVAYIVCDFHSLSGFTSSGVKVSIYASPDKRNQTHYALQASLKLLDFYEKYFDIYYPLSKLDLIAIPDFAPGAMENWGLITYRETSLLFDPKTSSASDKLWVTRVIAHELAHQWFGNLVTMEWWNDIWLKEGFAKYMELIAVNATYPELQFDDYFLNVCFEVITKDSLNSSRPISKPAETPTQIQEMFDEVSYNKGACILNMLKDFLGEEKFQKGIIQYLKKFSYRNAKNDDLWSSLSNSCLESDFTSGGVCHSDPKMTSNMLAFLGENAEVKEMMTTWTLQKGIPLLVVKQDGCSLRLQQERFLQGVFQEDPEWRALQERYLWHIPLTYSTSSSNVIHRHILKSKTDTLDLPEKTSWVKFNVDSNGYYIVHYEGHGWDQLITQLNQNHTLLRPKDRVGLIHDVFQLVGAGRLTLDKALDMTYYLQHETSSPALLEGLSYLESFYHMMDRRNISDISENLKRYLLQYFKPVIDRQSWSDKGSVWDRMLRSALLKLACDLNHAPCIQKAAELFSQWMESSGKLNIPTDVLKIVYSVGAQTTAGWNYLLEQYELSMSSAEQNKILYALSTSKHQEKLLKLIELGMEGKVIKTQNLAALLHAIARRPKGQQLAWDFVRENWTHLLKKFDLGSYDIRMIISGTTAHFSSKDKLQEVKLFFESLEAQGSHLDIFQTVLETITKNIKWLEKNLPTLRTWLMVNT",
  "assay": "Inhibition of recombinant ERAP2 (unknown origin) expressed in baculovirus infected insect cells using L-arginine-7-amido-4-methylcoumarine as substrate by spectrofluorimetric assay",
  "data": [
    {"smiles": "O=C(NO)C(Cc1ccc(F)cc1)C(=O)NCc1ccccc1", "note": "(stereo unspecified)", "values": [
      {"measurement": "IC50", "result": "> 100", "unit": "µM"}
    ]}
  ]
}
